US20210113501A1, “METHOD OF ADMINISTERING BETA-HYDROXY-BETA-METHYLBUTYRATE (HMB)” (Metabolic Technologies, Inc., priority 2009, published 2021)
Like-named read-outs stand apart in the source and are kept apart here.

Columns and labels:
[1] = Study 2: plasma HMB and urinary HMB excretion over 24 h; type: in vivo, human; settings: Study 2; for AUC plasma HMB: 24 h; for Clearance: Vd assumed 20% of body weight; for AUC greater than for CaHMB capsules: over 24 hours; for tpeak: unit as in Table 5
Description: Human subjects. In study 1, four male and four female college-aged subjects were studied. In study 2, an additional four male and four female college-aged subjects were studied. The protocols for both studies were approved by the Iowa State University IRB and each subject gave informed consent to participate in the study. Due to the nature of the treatments, neither the subjects nor the researchers could be blinded.
Treatments. The same treatments were given to the subjects in both study groups. The three treatments were given in random order to each subject with at least a one week washout period between treatments. The treatments were supplied by Metabolic Technologies, Inc. (MTI, Ames, Iowa) and were prepared with food grade ingredients. One gram of CaHMB or the equivalent HMB in free acid in a gel form was administered to the subjects. The CaHMB capsules were obtained from a commercial supplement manufacturer (Optimum Nutrition, Aurora, Ill.) while the HMB-acid gel was prepared at MTI laboratories. Briefly, the HMB-acid was adjusted to a pH 4.5 with potassium carbonate (K2CO3) and flavors and sweeteners were then added. The 1.0 g CaHMB capsule was taken with 355 mL of water (approx. 12 oz.). The free acid gel dosage was 0.80 g and was equivalent to the free acid contained in the CaHMB in the capsule. The free acid gel treatments were either swallowed (FASW) or held sublingual for 15 seconds and then swallowed (FASL). FASW consisted of expelling the entire dose into the mouth in a 3 ml syringe, swallowing, and then following this with 355 mL of water. FASL subjects were instructed to place the entire dosage under the tongue and hold the dosage for 15 sec before swallowing. They then rinsed and followed the dose with 355 mL of water.
Study 2 design. Study 2 was conducted similar to study 1 with the following modifications. In study 2, plasma levels of HMB were measured for 1440 min (24 h) and total urine collection was also performed for measurement of urinary HMB excretion during this period. After the 180 min blood sample, the subjects were allowed to leave the laboratory and were instructed to return to the laboratory for additional blood samples at 360, 720, and 1440 min after the ingestion of the supplement. As in study 1, each subject took each of the treatments with at least a one week washout period between treatments. Samples were again stored frozen at −70° C. for analysis of plasma and urinary HMB concentrations. Pre-ingestion, 180 min and 1440 min blood samples were again assayed for the same measurements already for study 1. Subjects were provided with a standardized lunch after the 180 min blood sampling and instructed to eat this at approximately 240 min post ingestion. Following the 720 min blood sample, subjects were instructed to eat a normal evening meal before 10 pm. Subjects reported back to the laboratory the following morning for the fasted 1440 min blood sample. A urine collection container was provided and subjects collected all urine produced during the experimental 24 h experimental period. The urine was stored refrigerated when not being collected. Urine volumes were measured and samples of the total urine collection were taken and stored frozen at −70° C. until analyzed for HMB.
HMB analysis. Plasma and urine HMB were analyzed by gas chromatography/mass spectrometry (GC/MS) as previously described.(27)
Calculations and statistics. Areas under the curves were calculated for each subject using the trapezoidal method that sums the area above baseline.(51) Half-life of plasma HMB was calculated for study 2. The following equations were used:
k=(ln(Cpeak)−ln(Ctrough))/Tinterval
Peak plasma concentrations for each subject were used for Cpeak. […] Tpeak was the time at which Cpeak was measured and Tinterval is the time from Tpeak until the time at Ctrough (720 min). The extracellular fluid compartment was assumed to be 20% of body weight and calculated using equation 3 below(1). […]

[2] = cited from earlier work

Structure (SMILES) | 24 h Urine HMB [1] [mmol] | 24 h Urine HMB, % initial dose [1] [% initial dose] | Cpeak (peak plasma HMB concentration) [1] [nmol/mL] | AUC plasma HMB [1] | Clearance [1] [mL/min] | tpeak [1] [min] | further results
CC(C)(O)CC(=O)O [HMB-Acid Gel Sublingual, 3-hydroxy-3-methylbutyric acid] | 1.16 ± 0.17 | 17.2 ± 2.5 | 247.6 ± 19.8 | 52,886 ± 2,729 nmol/1440 min | 66.9 ± 1.6 | 38.8 ± 2.6 | 24 h Urine HMB, % initial dose ([1]; listed as FASL): 17.2±2.5 % initial dose; Cpeak (peak plasma HMB concentration) ([1]; listed as FASL): 247.6 ± 19.8 nmol/mL; Half-life of plasma HMB ([1]; listed as FASL): 2.51 ± 0.14 h; time to peak plasma HMB concentration ([1]; listed as FASL): 38.8 ± 2.6 min; AUC greater than for CaHMB capsules ([1]; listed as FASL): 14.3%
CC(C)(O)CC(=O)[O-].CC(C)(O)CC(=O)[O-].[Ca+2] [CaHMB, calcium β-hydroxy-β-methylbutryate, reference compound] | 1.00 ± 0.13 | 14.7±2.0 | 131.2 ± 6.0 | 46,281 ± 2,717 nmol/1440 min | 53.9 ± 4.2 | 135 ± 17 | time of peak plasma HMB levels after ingestion ([2]; depending upon the dosage): 60 to 120 min; plasma peak levels, 3 grams versus 1 gram dose ([2]; oral, Vukovich et al): 3 times; time to peak plasma levels ([2]; typical 1 gram dosage): 2 h; Half-life of plasma HMB [1]: 3.17 ± 0.22 h; time to peak plasma HMB concentration [1]: 135.0 ± 17.0 min; plasma HMB level at 360 and 720 min versus free acid gel ([1]; p<0.05): slightly higher
CC(C)(O)CC(=O)O [HMB-Acid Gel Swallow, 3-hydroxy-3-methylbutyric acid] | 1.21 ± 0.19 | 17.8 ± 2.9 | 238.6 ± 16.0 | 53,395 ± 2,862 nmol/1440 min |  | 41.9 ± 5.8 | 24 h Urine HMB, % initial dose ([1]; listed as FASW): 17.8±2.9 % initial dose; Cpeak (peak plasma HMB concentration) ([1]; listed as FASW): 238.6 ± 16.0 nmol/mL; time to peak plasma HMB concentration ([1]; listed as FASW): 41.9 ± 5.8 min; AUC greater than for CaHMB capsules ([1]; listed as FASW): 15.4%; half-life ([1]; both sexes, human, plasma, oral, 0.8 g): 2.5 ± 0.13 h; Clearance ([1]; both sexes, human, plasma, oral, 0.8 g, read-out: Clearance): 67.3 ± 3.2 mL/min
